Patent US10499641B2 (priority 2010, dated 2019)

Key:
[1] = tested on: Plasmopara viticola; assay: Plasmopara test (grapevine)/protective; type: in vivo; conditions: young grapevine plants, sprayed, active ingredient concentration 10 ppm, evaluation 6 days after inoculation; 100% = no infection
Method: Plasmopara Test (Grapevine)/Protective
• Solvent: 24.5 parts by weight of acetone • 24.5 parts by weight of dimethylacetamide • Emulsifier: 1 part by weight of alkylaryl polyglycol ether
[To produce an appropriate active ingredient formulation, 1 part by weight of active ingredient is mixed with the specified amounts of solvent and emulsifier, and the concentrate is diluted with water to the desired concentration.
To test for protective efficacy, young plants are sprayed with the active ingredient formulation at the stated application rate. After the spray coating has dried on, the plants are inoculated with an aqueous spore suspension of Plasmopara viticola and then remain in an incubation cabin at approx. 20° C. and 100% relative air humidity for 1 day. Subsequently, the plants are placed in a greenhouse at approx. 21° C. and approx. 90% air humidity for 4 days. The plants are then moistened and placed in an incubation cabin for 1 day.
Evaluation follows 6 days after the inoculation. 0% means an efficacy which corresponds to that of the control, whereas an efficacy of 100% means that no infection is observed.
In this test, the following inventive compounds show, at an active ingredient concentration of 10 ppm, an efficacy of 70% or more: […]

[2] = tested on: Phytophthora infestans; type: in vivo; conditions: young tomato plants, sprayed, active ingredient concentration 100 ppm, inoculated 1 day after treatment, evaluation 7 days after inoculation; 100% = no infection
[3] = tested on: Peronospora brassicae; assay: Peronospora test (oilseed rape seeds)/seed treatment; type: in vivo; conditions: dose 50 g/dt, 14-day-old plants inoculated, incubated 7 days, infected leaf area, 100% = no disease
Method: Peronospora Test (Oilseed Rape Seeds)/Seed Treatment
The test was conducted under greenhouse conditions.
Oilseed rape seeds treated with an inventive active compound or a combination of inventive active compounds dissolved in N-methyl-2-pyrrolidone and diluted with water to the desired dose were sown in 6*6 cm vessels. The vessels contain 4 cm of a 1:1 mixture of steam-treated field soil and sand. The plants grew at 10° C.
14-day-old plants were inoculated with an aqueous spore suspension of Peronospora brassicae. The vessels containing the plants were incubated in a greenhouse at a temperature of 15° C. and a relative air humidity of 100% for 7 days.
The assessment of the test included the evaluation of the infected leaf area per plant. 0% means an efficiency corresponding to that of the control, while an efficiency of 100% means that no disease is observed.

[4] = pH 7.8
[5] = physchem

Structure (SMILES) | Eff. % [1] [%] | Eff. % [2] [%] | Eff. % [3] [%] | logp [b] [4] | chromatographic logP ([5]; pH 2.7) | chromatographic logP ([5]; pH 7.8)
O=C(Cn1nc(C(F)F)cc1C(F)F)N1CCC(c2nc(C3=NOC(c4ccccc4C=NO)C3)cs2)CC1 (mixture of isomers) [Example I-4] | 100 | 100 | 92 |  |  | 
Cc1cc(C(F)(F)F)nn1CC(=O)N1CCC(c2nc(C3=NOC(c4ccccc4C=NO)C3)cs2)CC1 (mixture of isomers) [Example I-38] | 95 | 100 | 86 |  |  | 
C[Si](C)(C)C#CCOc1ccccc1C1CC(c2csc(C3CCN(C(=O)Cn4nc(C(F)F)cc4C(F)F)CC3)n2)=NO1 (stereo not drawn) [Example I-1, 2-[3,5-Bis(difluoromethyl)-1H-pyrazol-1-yl]-1-(4-{4-[5-(2-{[3-(trimethylsilyl)prop-2-yn-1-yl]oxy}phenyl)-4,5-dihydro-1,2-oxazol-3-yl]-1,3-thiazol-2-yl]piperidin-1-yl}ethanone] |  |  |  | 4.58[b] |  | 
O=C(Cn1nc(C(F)F)cc1C(F)F)N1CCC(c2nc(C3=NOC(c4ccccc4OCC#Cc4cccc5ccccc45)C3)cs2)CC1 (stereo not drawn) [Example I-2, 2-[3,5-Bis(difluoromethyl)-1H-pyrazol-1-yl]-1-(4-{4-[5-(2-{[3-(1-naphthyl)prop-2-yn-1-yl]oxy}phenyl)-4,5-dihydro-1,2-oxazol-3-yl]-1,3-thiazol-2-yl}piperidin-1-yl)ethanone] |  | 100 |  |  | 4.81 | 4.68
CC(C)(C)OC(=O)Nc1ccc(C2CC(c3csc(C4CCN(C(=O)Cn5nc(C(F)F)cc5C(F)F)CC4)n3)=NO2)cc1 (stereo not drawn) [Example I-17, tert-Butyl (4-{3-[2-(1-{[3,5-bis(difluoromethyl)-1H-pyrazol-1-yl]acetyl}piperidin-4-yl)-1,3-thiazol-4-yl]-4,5-dihydro-1,2-oxazol-5-yl}phenyl)carbamate] |  | 100 |  | 3.46[b] |  | 
CC(=NO)c1ccccc1C1CC(c2csc(C3CCN(C(=O)Cn4nc(C(F)(F)F)cc4C)CC3)n2)=NO1 (stereo not drawn) [Example I-40, 1-[4-(4-{5-[2-(N-Hydroxyethanimidoyl)phenyl]-4,5-dihydro-1,2-oxazol-3-yl}-1,3-thiazol-2-yl)piperidin-1-yl]-2-[5-methyl-3-(trifluoromethyl)-1H-pyrazol-1-yl]ethanone] | 90 | 100 |  |  | 2.92 | 
CON=Cc1cccc(F)c1C1CC(c2csc(C3CCN(C(=O)Cn4nc(C(F)F)cc4C(F)F)CC3)n2)=NO1 (stereo not drawn) [Example I-60] | 100 | 84 | 95 |  |  | 
Cc1cc(C(F)(F)F)nn1CC(=O)N1CCC(c2nc(C3=NOC(c4ccccc4OS(=O)(=O)C4CC4)C3)cs2)CC1 (stereo not drawn) [Example I-61] | 100 | 89 | 90 |  |  | 
Cc1cc(C(F)(F)F)nn1CC(=O)N1CCC(c2nc(C3=NOC(c4ccccc4OS(C)(=O)=O)C3)cs2)CC1 (stereo not drawn) [Example I-62] | 100 | 89 | 90 |  |  | 
CCS(=O)(=O)Oc1ccccc1C1CC(c2csc(C3CCN(C(=O)Cn4nc(C(F)F)cc4C(F)F)CC3)n2)=NO1 (stereo not drawn) [Example I-65] | 100 | 100 | 90 |  |  | 
N#CCOc1cccc(F)c1C1CC(c2csc(C3CCN(C(=O)Cn4nc(C(F)F)cc4C(F)F)CC3)n2)=NO1 (stereo not drawn) [Example I-113] | 100 | 85 |  |  |  | 
Cc1cc(C(F)(F)F)nn1CC(=O)N1CCC(c2nc(C3=NOC(c4cccc(F)c4OS(=O)(=O)C4CC4)C3)cs2)CC1 (stereo not drawn) [Example I-114] | 100 | 94 |  |  |  | 
O=C(Cn1nc(C(F)F)cc1C(F)F)N1CCC(c2nc(C3=NOC(c4ccccc4OS(=O)(=O)C(F)(F)F)C3)cs2)CC1 (stereo not drawn) [Example I-115] | 100 | 88 |  |  |  | 
C=CC(=O)Oc1ccccc1C1CC(c2csc(C3CCN(C(=O)Cn4nc(C(F)F)cc4C(F)F)CC3)n2)=NO1 (stereo not drawn) [Example I-116] | 100 | 98 |  |  |  | 
C#CCN(C=O)c1ccccc1C1CC(c2csc(C3CCN(C(=O)Cn4nc(C(F)F)cc4C(F)F)CC3)n2)=NO1 (stereo not drawn) [Example I-117] | 96 | 79 |  |  |  | 
CON=Cc1cccc(F)c1C1CC(c2csc(C3CCN(C(=O)Cn4nc(C(F)(F)F)cc4C)CC3)n2)=NO1 (stereo not drawn) [Example I-118] | 100 | 95 |  |  |  | 

Structure (SMILES) | Eff. % [1] [%] | Eff. % [2] [%] | Eff. % [3] [%] | logp [b] [4] | chromatographic logP ([5]; pH 2.7) | chromatographic logP ([5]; pH 7.8)
CCS(=O)(=O)Oc1ccccc1C1CC(c2csc(C3CCN(C(=O)Cn4nc(C(F)(F)F)cc4C)CC3)n2)=NO1 (stereo not drawn) [Example I-119] | 100 | 89 |  |  |  | 
CSCOc1ccccc1C1CC(c2csc(C3CCN(C(=O)Cn4nc(C(F)(F)F)cc4C)CC3)n2)=NO1 (stereo not drawn) [Example I-120] | 95 | 89 |  |  |  | 
N#CCN(C=O)c1ccccc1C1CC(c2csc(C3CCN(C(=O)Cn4nc(C(F)F)cc4C(F)F)CC3)n2)=NO1 (stereo not drawn) [Example I-121] | 98 | 100 |  |  |  | 
O=CNc1ccccc1C1CC(c2csc(C3CCN(C(=O)Nc4cc(C(F)F)ccc4C(F)F)CC3)n2)=NO1 (stereo not drawn) [Example I-122] | 89 | 97 |  |  |  | 
O=CNc1ccccc1C1CC(c2csc(C3CCN(C(=O)Cc4cc(C(F)F)ccc4C(F)F)CC3)n2)=NO1 (stereo not drawn) [Example I-123] | 73 | 100 |  |  |  | 
CS(=O)(=O)Oc1ccccc1C1CC(c2csc(C3CCN(C(=O)Cn4nc(C(F)F)cc4C(F)F)CC3)n2)=NO1 (stereo not drawn) [Example I-124] | 100 | 100 | 100 |  |  | 
Cc1cc(C(F)(F)F)nn1CC(=O)N1CCC(c2nc(C3=NOC(c4ccccc4OS(=O)(=O)C(F)(F)F)C3)cs2)CC1 (stereo not drawn) [Example I-125] | 100 | 89 |  |  |  | 
CN(C)C(=S)c1ccccc1C1CC(c2csc(C3CCN(C(=O)Cn4nc(C(F)F)cc4C(F)F)CC3)n2)=NO1 (stereo not drawn) [Example I-127] | 96 | 97 |  |  |  | 
COC(=O)COc1ccc(C2CC(c3csc(C4CCN(C(=O)Cn5nc(C(F)F)cc5C(F)F)CC4)n3)=NO2)cc1 (stereo not drawn) [Example I-128] | 93 | 90 |  |  |  | 
O=C(Oc1ccccc1C1CC(c2csc(C3CCN(C(=O)Cn4nc(C(F)F)cc4C(F)F)CC3)n2)=NO1)c1cccc(F)c1 (stereo not drawn) [Example I-129] | 98 | 98 |  |  |  | 
O=C(Oc1ccccc1C1CC(c2csc(C3CCN(C(=O)Cn4nc(C(F)F)cc4C(F)F)CC3)n2)=NO1)c1ccccc1F (stereo not drawn) [Example I-130] | 100 | 100 |  |  |  | 
O=C(Oc1ccccc1C1CC(c2csc(C3CCN(C(=O)Cn4nc(C(F)F)cc4C(F)F)CC3)n2)=NO1)c1ccccc1 (stereo not drawn) [Example I-131] | 94 | 100 |  |  |  | 
O=C(Oc1ccccc1C1CC(c2csc(C3CCN(C(=O)Cn4nc(C(F)F)cc4C(F)F)CC3)n2)=NO1)c1ccc(F)cc1 (stereo not drawn) [Example I-132] | 96 | 100 |  |  |  | 
C[Si](C)(C)C#Cc1ccccc1C1CC(c2csc(C3CCN(C(=O)Cn4nc(C(F)F)cc4C(F)F)CC3)n2)=NO1 (stereo not drawn) [Example I-133] | 85 | 100 |  |  |  | 
C#CCOCc1ccccc1C1CC(c2csc(C3CCN(C(=O)Cn4nc(C(F)F)cc4C(F)F)CC3)n2)=NO1 (stereo not drawn) [Example I-138] | 98 | 93 |  |  |  | 
Cc1cc(C(F)(F)F)nn1CC(=O)N1CCC(c2nc(C3=NOC(c4ccccc4OCC#N)C3)cs2)CC1 (stereo not drawn) [Example I-140] | 100 | 84 |  |  |  | 
